Consider 36 molecules from patent US7767665B2, “1,3-benzothiazinone derivatives and use thereof” (Takeda Pharmaceutical Company Limited, priority 2001, dated 2010).

Where a name gives a salt, the structure may show the parent alone.

For orientation: melting point means the temperature, or range, at which the solid turns liquid. On to `Cl.NCCc1ccnc(-c2nc(=O)c3ccccc3s2)c1`, for which the melting point was 238 °C (dec.).
As for `Cc1cccc2c(=O)nc(-c3cccc(C(=O)NCCCCCCN)n3)sc12.Cl`, the melting point turned out to be 240 °C.
For the molecule `CCOP(=O)(Cc1cccc(-c2nc(=O)c3ccccc3s2)n1)OCC`, the melting point lay within 115.5 to 116.5 °C.
Consider `CCOP(=O)(CCc1cccc(-c2nc(=O)c3ccccc3s2)n1)OCC`, for which the melting point was in the range of 148.8 to 149.8 °C.
Turning to `CCOP(=O)(CCc1ccnc(-c2nc(=O)c3ccccc3s2)c1)OCC`, the melting point lay within 102 to 103.2 °C.
Take `CCOP(=O)(CCc1ccnc(-c2nc(=O)c3ccc(Cl)cc3s2)c1)OCC`: the melting point lay in the range of 137.7 to 139.1 °C.
For the molecule `O=c1nc(-c2cccc(CN3CCC(O)(c4ccc(Cl)cc4)CC3)n2)sc2ccccc12`, the melting point is 151 to 153 °C.
Take `Cl.O=c1nc(-c2cc(C3CCCN3)ccn2)sc2ccccc12` (stereo not drawn): the melting point was 219.4 to 221.4 °C.
For `NCCCCCCNC(=O)c1cccc(-c2nc(=O)c3ccccc3s2)n1` (as salt: hydrochloride) [Example 107, N-(6-Aminohexyl)-6-(4-oxo-4H-1,3-benzothiazin-2-yl)-2-pyridinecarboxamide hydrochloride], the melting point fell in the range of 95.2 to 97.6 °C.
Under `NCc1cccc(-c2nc(=O)c3ccccc3s2)n1` (as salt: trifluoroacetic acid salt) [Example 203, 2-[6-(Aminomethyl)-2-pyridyl]-4H-1,3-benzothiazine-4-one trifluoroacetic acid salt] stands 184.5 to 186.5 °C; under `NCCc1cccc(-c2nc(=O)c3ccccc3s2)n1` (as salt: trifluoroacetic acid salt) [Example 220, 2-[6-(2-Aminoethyl)-2-pyridyl]-4H-1,3-benzothiazine-4-one trifluoroacetic acid salt], 206.2 to 207.1 °C; under `NCCc1ccnc(-c2nc(=O)c3ccccc3s2)c1` (as salt: trifluoroacetic acid salt) [Example 221, 2-[4-(2-Aminoethyl)-2-pyridyl]-4H-1,3-benzothiazine-4-one trifluoroacetic acid salt], 209 to 210.7 °C.
Regarding `NCCc1ccnc(-c2nc(=O)c3ccc(Cl)cc3s2)c1` (as salt: trifluoroacetic acid salt) [Example 223, 2-[4-(2-Aminoethyl)-2-pyridyl]-7-chloro-4H-1,3-benzothiazine-4-one trifluoroacetic acid salt], the melting point was 212 °C (dec.).
`O=c1nc(-c2cc(C3CCCN3)ccn2)sc2ccccc12` (stereo not drawn) (as salt: trifluoroacetic acid salt) [Example 353, 2-[4-(2-Pyrrolidinyl)-2-pyridyl]-4H-1,3-benzothiazine-4-one trifluoroacetic acid salt] yielded a melting point of 187.5 to 189 °C.
`O=c1nc(-c2ccco2)sc2ccccc12` [Example 1, 2-(2-Furyl)-4H-1,3-benzothiazine-4-one] yielded a melting point of 170 to 171.5 °C.
As to `O=c1nc(-c2cccs2)sc2ccccc12` [Example 2, 2-(2-Thienyl)-4H-1,3-benzothiazine-4-one], the melting point is 157.7 to 158.2 °C.
Consider `O=c1nc(-c2ccc3ccccc3n2)sc2ccccc12` [Example 3, 2-(2-Quinolinyl)-4H-1,3-benzothiazine-4-one], for which the melting point lay in the range of 262.7 to 263.4 °C.
As for `O=c1nc(-c2cnc3ccccc3c2)sc2ccccc12` [Example 4, 2-(3-Quinolinyl)-4H-1,3-benzothiazine-4-one], the melting point was in the range of 216 to 217 °C.
As for `CC(C)(C)OC(=O)CCc1cccc(-c2nc(=O)c3ccc(Cl)cc3s2)n1` [Example 5, tert-Butyl 3-[6-(7-chloro-4-oxo-4H-1,3-benzothiazin-2-yl)-2-pyridyl]propanoate], the figure is 167.9 to 168.2 °C.
The molecule `O=C(O)CCc1cccc(-c2nc(=O)c3ccc(Cl)cc3s2)n1` [Example 6, 3-[6-(7-Chloro-4-oxo-4H-1,3-benzothiazin-2-yl)-2-pyridyl]propionic acid] showed a melting point of 224.4 to 224.7 °C.
Molecule `Cc1cccnc1-c1nc(=O)c2ccccc2s1` [Example 8, 2-(3-Methyl-2-pyridyl)-4H-1,3-benzothiazine-4-one] had a melting point of 149.9 to 151.6 °C.
In the case of `O=c1nc(-c2ccccn2)sc2ccc(Cl)cc12` [Example 9, 6-Chloro-2-(2-pyridyl)-4H-1,3-benzothiazine-4-one], the melting point is 269.4 to 270.1 °C.
`O=c1nc(-c2ccccn2)sc2ccc(Br)cc12` [Example 11, 6-Bromo-2-(2-pyridyl)-4H-1,3-benzothiazine-4-one] registered a melting point of 253 to 253.7 °C.
Turning to `Cc1cccc2c(=O)nc(-c3ccccn3)sc12` [Example 12, 8-Methyl-2-(2-pyridyl)-4H-1,3-benzothiazine-4-one], the melting point was 197.8 to 198.5 °C.
In turn, `Cc1ccc2sc(-c3ccccn3)nc(=O)c2c1` [Example 13, 6-Methyl-2-(2-pyridyl)-4H-1,3-benzothiazine-4-one] yielded a melting point of 219.8 to 220.8 °C.
Molecule `COc1cc2sc(-c3ccccn3)nc(=O)c2cc1OC` [Example 14, 6,7-Dimethoxy-2-(2-pyridyl)-4H-1,3-benzothiazine-4-one] returned a melting point of 236.3 to 237.5 °C.
In turn, `O=c1nc(-c2ccc[nH]2)sc2ccccc12` [Example 15, 2-(1H-Pyrrol-2-yl)-4H-1,3-benzothiazine-4-one] showed a melting point of 202.4 to 203.2 °C.
`Cc1ccc(-c2nc(=O)c3ccccc3s2)n1C` [Example 16, 2-(1,5-Dimethyl-1H-pyrrol-2-yl)-4H-1,3-benzothiazine-4-one]: the melting point was 194.3 to 195.7 °C.
Regarding `Cc1cccc2sc(-c3ccccn3)nc(=O)c12` [Example 17, 5-Methyl-2-(2-pyridyl)-4H-1,3-benzothiazine-4-one], the melting point lay within 150.8 to 151.3 °C.
As to `COc1cccc2c(=O)nc(-c3ccccn3)sc12` [Example 18, 8-Methoxy-2-(2-pyridyl)-4H-1,3-benzothiazine-4-one], the melting point lay within 191.2 to 191.4 °C.
Molecule `O=c1nc(-c2ccccn2)sc2ncccc12` [Example 22, 2-(2-Pyridyl)-4H-pyrido[3,2-e][1,3]thiazine-4-one] had a melting point of 234.7 to 234.9 °C.
In turn, `Cc1cc(C)c2sc(-c3ccccn3)nc(=O)c2c1` [Example 24, 6,8-Dimethyl-2-(2-pyridyl)-4H-1,3-benzothiazine-4-one] gave a melting point of 245 to 245.8 °C.
As for `COc1ccnc(-c2nc(=O)c3ccccc3s2)c1` [Example 25, 2-(4-Methoxy-2-pyridyl)-4H-1,3-benzothiazine-4-one], the figure is 214.1 to 214.6 °C.
As for `CCOC(=O)c1cccc(-c2nc(=O)c3ccccc3s2)n1` [Example 26, Ethyl 6-(4-oxo-4H-1,3-benzothiazin-2-yl)-2-pyridinecarboxylate], the figure is 170 to 172.2 °C.
For `CCOC(=O)c1ccnc(-c2nc(=O)c3ccccc3s2)c1` [Example 27, Ethyl 2-(4-oxo-4H-1,3-benzothiazin-2-yl)isonicotinate], the melting point lay in the range of 235.9 to 236.7 °C.
Under `CCCNc1ccc(-c2nc(=O)c3ccccc3s2)cn1` [Example 31, 2-[6-(Propylamino)-3-pyridyl]-4H-1,3-benzothiazine-4-one] stands 210.1 to 210.6 °C.
